Results: ChEMBL document CHEMBL1151497, “Design, synthesis and antiproliferative activity of methyl 4-Iodo-1--D-ribofuranosyl-pyrazole-3-carboxylate and related compounds” (Bioorg Med Chem Lett, 1996)

Experiments:
Assay type in all cases: functional, cell-based
ACHN = assay: Compound was tested for its effect on the proliferation of ACHN human kidney adenocarcinoma
CHO-K1 = assay: Compound was tested for its effect on the proliferation of CHO-K1 Chinese hamster ovary cell line.; conditions: Cricetulus griseus
CCRF-SB = assay: Compound was tested for its effect on the proliferation of CCRF-SB human lymphoblastic B-leukemia cell line.
CCRF-CEM [1] = assay: Compound was tested for its effect on the proliferation of CCRF-CEM human lymphoblastic T-leukemia cell line
HT-29 = assay: Compound was tested for its effect on the proliferation of HT-29 human colon adenocarcinoma.
HEL 299 = assay: Compound was tested for its effect on the proliferation of […] human diploid embryonal lung cell line.
MT4 [2] = assay: Compound was tested for its effect on the proliferation of MT-4 cells expressing the TAT gene of HTLV-1.; conditions: Homo sapiens
L1210 = assay: Compound was tested for its effect on the proliferation of L1210 murine leukemia cell line.; conditions: Mus musculus
MOLT-4 = assay: Compound was tested for its effect on the proliferation of MOLT-4 human lymphoblastic T-leukemia cell line.
Raji = assay: Compound was tested for its effect on the proliferation of RAJI burkitt lymphoma cell line.; conditions: Homo sapiens
WIL2-NS = assay: Compound was tested for its effect on the proliferation of WIL-2-NS cell line.; conditions: Homo sapiens
C8166 = assay: Compound was tested for its effect on the proliferation of C8166 cells expressing the TAT gene of HTLV-1.; conditions: Homo sapiens
MT4 [3] = assay: Dose required to achieve 50% protection of MT-4 cells against the cytopathic effect of HIV-1; conditions: Homo sapiens
CCRF-CEM [4] = assay: Compound was tested for its effect on the proliferation of CCRF-CEM human lymphoblastic T-leukemia cell line.

SMILES	IC50 (ACHN) [µM]	IC50 (CHO-K1) [µM]	IC50 (CCRF-SB) [µM]	IC50 (CCRF-CEM [1]) [µM]	IC50 (HT-29) [µM]	IC50 (HEL 299) [µM]	IC50 (MT4 [2]) [µM]	IC50 (L1210) [µM]	IC50 (MOLT-4) [µM]	IC50 (Raji) [µM]	IC50 (WIL2-NS) [µM]	IC50 (C8166) [µM]	EC50 (MT4 [3]) [µM]	IC50 (CCRF-CEM [4]) [µM]
COC(=O)c1csc([C@@H]2O[C@H](CO)[C@@H](O)[C@H]2O)n1	> 300	> 300	> 300	> 300	> 300	> 300	> 300	> 300	> 300	> 300	> 300	–	–	–
COC(=O)c1ncn([C@@H]2O[C@H](CO)[C@@H](O)[C@H]2O)n1	> 300	> 300	> 300	> 300	> 300	> 300	> 300	> 300	> 300	> 300	> 300	–	–	–
Cc1noc(-c2nn([C@@H]3O[C@H](CO)[C@@H](O)[C@H]3O)cc2I)n1	6.2	8.5	2.8	2.6	4.8	7.9	2.3	–	3	–	3.5	–	–	–
CCCCOC(=O)c1nn([C@@H]2O[C@H](CO)[C@@H](O)[C@H]2O)cc1I	–	37	21	19	25	40	25	–	16	17	23	15	–	–
O=C(O)c1nn([C@@H]2O[C@H](CO)[C@@H](O)[C@H]2O)cc1I	> 300	> 300	> 300	> 300	> 300	> 300	> 300	> 300	> 300	> 300	> 300	> 300	–	–
COC(=O)c1nn([C@@H]2O[C@H](CO)[C@@H](O)[C@H]2O)cc1I	3.6	7.9	0.9	1.5	2.8	4	1.6	2.4	0.9	0.2	1.6	0.2	–	–
COC(=O)c1nn([C@@H]2O[C@H](CO)[C@@H](O)[C@H]2O)cc1I.Cc1cn([C@H]2C[C@H](N=[N+]=[N-])[C@@H](CO)O2)c(=O)[nH]c1=O	–	–	–	–	–	–	–	–	–	–	–	–	0.005	–
COC(=O)c1nn([C@@H]2O[C@H](CO)[C@@H](O)[C@H]2O)cc1I.OC[C@@H]1CC[C@H](n2cnc3c(O)ncnc32)O1	–	–	–	–	–	–	–	–	–	–	–	–	3	–
C#Cc1cn([C@@H]2O[C@H](CO)[C@@H](O)[C@H]2O)nc1C(N)=O	287	> 300	> 300	> 300	> 300	235	> 300	> 300	> 300	> 300	> 300	22	–	–
NC(=O)c1nn([C@@H]2O[C@H](CO)[C@@H](O)[C@H]2O)cc1I	> 300	> 300	> 300	–	> 300	> 300	2.1	> 300	9.1	> 300	> 300	4	–	2.4
COc1cccc2c1C(=O)c1c(O)c3c(c(O)c1C2=O)C[C@@](O)(C(=O)CO)C[C@@H]3O[C@H]1C[C@H](N)[C@H](O)[C@H](C)O1 [DOXORUBICIN]	0.7	1.2	0.05	0.08	1.1	1.7	0.05	0.9	0.05	0.1	0.2	0.05	–	–
NC(=O)c1ncn([C@@H]2O[C@H](CO)[C@@H](O)[C@H]2O)n1 [RIBAVIRIN]	> 100	50	> 100	19	–	45	23	16.6	5.7	56	> 100	> 100	–	–
Cc1cn([C@H]2C[C@H](N=[N+]=[N-])[C@@H](CO)O2)c(=O)[nH]c1=O [ZIDOVUDINE]	–	–	–	–	–	–	–	–	–	–	–	–	0.002	–
